# Data as given in patent US12275731B2, “Azaindole inhibitors of wild-type and mutant forms of LRRK2” (DANA-FARBER CANCER INSTITUTE, INC., priority 2018, dated 2025).
# Key:
# Assay in all cases: KinomeScan profiling
# Assay type in all cases: binding
# TNK1 = target: T1, TNK1 (Homo sapiens, UniProt Q13470); conditions: TNK1, 1 μM; read-out: % control
# T1 sequence (Q13470 1-666): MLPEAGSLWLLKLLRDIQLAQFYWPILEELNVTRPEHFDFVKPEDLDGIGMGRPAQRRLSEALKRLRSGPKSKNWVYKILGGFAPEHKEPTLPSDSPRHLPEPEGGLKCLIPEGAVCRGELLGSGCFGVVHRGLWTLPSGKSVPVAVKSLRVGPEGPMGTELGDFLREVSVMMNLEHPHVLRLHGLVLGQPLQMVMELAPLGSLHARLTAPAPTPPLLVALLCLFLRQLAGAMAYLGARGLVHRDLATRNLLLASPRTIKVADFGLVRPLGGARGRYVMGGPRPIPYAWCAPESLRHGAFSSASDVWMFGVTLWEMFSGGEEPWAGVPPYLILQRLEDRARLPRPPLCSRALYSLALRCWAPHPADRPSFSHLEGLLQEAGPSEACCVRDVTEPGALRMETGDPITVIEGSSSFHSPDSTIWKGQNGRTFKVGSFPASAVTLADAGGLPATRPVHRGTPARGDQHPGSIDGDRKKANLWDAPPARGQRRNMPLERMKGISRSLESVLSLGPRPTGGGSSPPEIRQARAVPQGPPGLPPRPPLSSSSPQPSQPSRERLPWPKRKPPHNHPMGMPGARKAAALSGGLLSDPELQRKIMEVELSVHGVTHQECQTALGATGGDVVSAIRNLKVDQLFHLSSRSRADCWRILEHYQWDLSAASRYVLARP
# In short: (§1)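 Normalised RLU (% control; DMSO 100%, positive control 0%) was measured for compounds dosed at 1 μM over 468 kinases, active cut-off <35%.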
# SgK110 = target: T2, SgK110 (Homo sapiens, UniProt P0C264); conditions: SgK110, 1 μM; read-out: % control
# T2 construct: purchased KinomeScan® (panel service)
# T2 sequence (P0C264 1-359): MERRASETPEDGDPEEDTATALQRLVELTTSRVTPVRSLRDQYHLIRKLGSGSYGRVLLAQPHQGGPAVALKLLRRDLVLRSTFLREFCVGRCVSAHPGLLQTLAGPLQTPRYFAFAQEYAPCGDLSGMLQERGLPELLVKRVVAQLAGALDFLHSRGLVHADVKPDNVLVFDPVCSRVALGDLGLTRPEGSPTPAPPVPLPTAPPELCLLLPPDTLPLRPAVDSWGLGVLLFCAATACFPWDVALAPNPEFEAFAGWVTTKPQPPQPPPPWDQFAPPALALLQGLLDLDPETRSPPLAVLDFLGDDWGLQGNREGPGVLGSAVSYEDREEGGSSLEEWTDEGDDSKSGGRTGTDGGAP
# In short: as §1
# ABL1-nonphosphorylated = target: T3, ABL1-nonphosphorylated (Homo sapiens, UniProt P00519); conditions: read-out: % control
# T3 construct: purchased KinomeScan®
# T3 sequence (P00519 whole entry): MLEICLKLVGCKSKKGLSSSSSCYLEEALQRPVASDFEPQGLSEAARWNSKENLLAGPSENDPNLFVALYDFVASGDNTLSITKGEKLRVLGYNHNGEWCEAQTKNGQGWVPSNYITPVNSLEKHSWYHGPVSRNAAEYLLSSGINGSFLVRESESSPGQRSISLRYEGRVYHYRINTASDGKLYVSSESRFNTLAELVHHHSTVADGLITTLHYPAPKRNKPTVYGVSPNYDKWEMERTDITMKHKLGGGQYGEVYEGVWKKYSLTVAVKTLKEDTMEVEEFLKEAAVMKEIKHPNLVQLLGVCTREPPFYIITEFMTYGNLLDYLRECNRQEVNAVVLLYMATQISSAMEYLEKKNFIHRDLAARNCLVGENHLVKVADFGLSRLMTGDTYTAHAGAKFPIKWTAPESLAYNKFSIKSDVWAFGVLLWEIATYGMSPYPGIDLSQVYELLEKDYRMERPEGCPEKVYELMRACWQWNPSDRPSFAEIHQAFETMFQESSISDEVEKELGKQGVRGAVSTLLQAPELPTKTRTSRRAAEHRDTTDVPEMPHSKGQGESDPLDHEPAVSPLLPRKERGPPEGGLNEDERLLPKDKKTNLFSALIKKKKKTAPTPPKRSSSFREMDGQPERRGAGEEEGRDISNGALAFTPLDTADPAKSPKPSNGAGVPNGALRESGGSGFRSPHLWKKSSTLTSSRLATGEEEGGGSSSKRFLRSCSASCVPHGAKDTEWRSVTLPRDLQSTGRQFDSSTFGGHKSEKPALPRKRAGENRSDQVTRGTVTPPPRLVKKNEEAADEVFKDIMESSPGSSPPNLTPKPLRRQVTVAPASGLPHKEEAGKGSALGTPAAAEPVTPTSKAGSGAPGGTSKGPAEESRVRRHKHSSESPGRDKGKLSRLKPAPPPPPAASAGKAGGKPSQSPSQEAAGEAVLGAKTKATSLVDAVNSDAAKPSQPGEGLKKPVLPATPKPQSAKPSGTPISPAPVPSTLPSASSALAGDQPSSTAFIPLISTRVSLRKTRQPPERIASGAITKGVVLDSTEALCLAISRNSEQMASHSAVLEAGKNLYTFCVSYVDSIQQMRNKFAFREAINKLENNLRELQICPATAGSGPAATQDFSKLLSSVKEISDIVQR
# In short: as §1
# PLK1 = PLK1 (Homo sapiens, UniProt P53350); conditions: PLK1, 1 μM; read-out: % control
# Chain of PLK1 (P53350 whole entry): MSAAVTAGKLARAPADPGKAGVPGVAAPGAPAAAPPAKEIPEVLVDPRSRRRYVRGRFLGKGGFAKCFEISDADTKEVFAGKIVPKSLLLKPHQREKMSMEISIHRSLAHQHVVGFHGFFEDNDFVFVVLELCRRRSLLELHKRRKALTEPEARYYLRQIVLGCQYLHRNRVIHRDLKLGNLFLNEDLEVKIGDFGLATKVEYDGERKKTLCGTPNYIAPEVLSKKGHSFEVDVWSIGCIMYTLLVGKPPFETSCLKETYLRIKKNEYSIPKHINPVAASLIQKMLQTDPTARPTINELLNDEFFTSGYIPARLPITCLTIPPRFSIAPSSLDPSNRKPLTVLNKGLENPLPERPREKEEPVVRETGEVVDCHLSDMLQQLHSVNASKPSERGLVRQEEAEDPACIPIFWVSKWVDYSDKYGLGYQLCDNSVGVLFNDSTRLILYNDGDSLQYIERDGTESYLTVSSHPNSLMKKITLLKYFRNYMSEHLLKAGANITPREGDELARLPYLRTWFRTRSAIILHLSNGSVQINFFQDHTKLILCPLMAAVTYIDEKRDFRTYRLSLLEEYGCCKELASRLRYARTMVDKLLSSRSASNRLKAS
# In short: as §1
# [1] = target: T4, JAK2(JH1domain-catalytic) (Homo sapiens, UniProt O60674); conditions: read-out: % control
# T4 construct: Janus kinase 2 (JAK2)(JH1domain-catalytic); purchased KinomeScan®
# T4 sequence (O60674 849-1124 limits assumed): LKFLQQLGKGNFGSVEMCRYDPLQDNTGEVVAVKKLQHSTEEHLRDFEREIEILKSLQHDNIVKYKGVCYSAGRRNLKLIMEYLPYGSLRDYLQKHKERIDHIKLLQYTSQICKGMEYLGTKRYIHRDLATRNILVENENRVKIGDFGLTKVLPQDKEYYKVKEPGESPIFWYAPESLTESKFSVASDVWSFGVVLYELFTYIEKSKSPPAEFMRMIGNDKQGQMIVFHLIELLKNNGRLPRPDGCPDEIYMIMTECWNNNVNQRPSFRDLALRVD
# In short: as §1
# RIPK1 = target: T5, RIPK1 (Homo sapiens, UniProt Q13546); conditions: RIPK1, 1 μM; read-out: % control
# T5 sequence (Q13546 1-671): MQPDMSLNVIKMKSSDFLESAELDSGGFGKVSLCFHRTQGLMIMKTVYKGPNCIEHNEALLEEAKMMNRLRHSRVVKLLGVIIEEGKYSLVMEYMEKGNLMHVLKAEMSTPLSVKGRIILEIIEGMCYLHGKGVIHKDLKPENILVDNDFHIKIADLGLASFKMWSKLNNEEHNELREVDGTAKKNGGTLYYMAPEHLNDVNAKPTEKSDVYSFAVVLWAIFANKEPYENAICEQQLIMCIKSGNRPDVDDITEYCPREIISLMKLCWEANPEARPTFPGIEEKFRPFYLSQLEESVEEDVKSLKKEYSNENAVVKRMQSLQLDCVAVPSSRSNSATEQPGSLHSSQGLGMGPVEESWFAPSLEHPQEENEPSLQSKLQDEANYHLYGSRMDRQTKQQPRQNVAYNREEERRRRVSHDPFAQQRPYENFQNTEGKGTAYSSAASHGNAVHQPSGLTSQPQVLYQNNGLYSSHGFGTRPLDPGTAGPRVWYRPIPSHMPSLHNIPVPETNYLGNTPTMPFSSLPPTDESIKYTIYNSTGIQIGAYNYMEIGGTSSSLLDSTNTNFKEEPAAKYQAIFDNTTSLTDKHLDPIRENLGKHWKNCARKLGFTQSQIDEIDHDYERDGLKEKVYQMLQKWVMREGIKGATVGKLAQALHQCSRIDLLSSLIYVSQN
# In short: as §1
# PFTAIRE2 = PFTAIRE2 (Homo sapiens, UniProt Q96Q40); conditions: PFTAIRE2, 1 μM; read-out: % control
# Chain of PFTAIRE2 (Q96Q40 whole entry): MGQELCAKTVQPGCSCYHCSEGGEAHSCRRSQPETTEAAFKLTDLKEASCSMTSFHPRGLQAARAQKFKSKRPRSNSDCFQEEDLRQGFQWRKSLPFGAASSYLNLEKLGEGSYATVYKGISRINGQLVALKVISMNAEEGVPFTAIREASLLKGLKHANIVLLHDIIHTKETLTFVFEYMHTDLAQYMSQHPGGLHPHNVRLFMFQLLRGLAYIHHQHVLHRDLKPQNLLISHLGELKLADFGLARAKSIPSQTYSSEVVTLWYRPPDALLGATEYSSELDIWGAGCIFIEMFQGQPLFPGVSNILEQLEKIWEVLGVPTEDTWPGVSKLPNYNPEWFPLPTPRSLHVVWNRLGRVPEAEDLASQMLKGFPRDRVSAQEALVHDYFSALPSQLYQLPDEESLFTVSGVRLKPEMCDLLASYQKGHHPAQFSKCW
# In short: as §1
# CDK11 = CDK11 (Homo sapiens, UniProt Q9BWU1); conditions: CDK11, 1 μM; read-out: % control
# Chain of CDK11 (Q9BWU1 whole entry): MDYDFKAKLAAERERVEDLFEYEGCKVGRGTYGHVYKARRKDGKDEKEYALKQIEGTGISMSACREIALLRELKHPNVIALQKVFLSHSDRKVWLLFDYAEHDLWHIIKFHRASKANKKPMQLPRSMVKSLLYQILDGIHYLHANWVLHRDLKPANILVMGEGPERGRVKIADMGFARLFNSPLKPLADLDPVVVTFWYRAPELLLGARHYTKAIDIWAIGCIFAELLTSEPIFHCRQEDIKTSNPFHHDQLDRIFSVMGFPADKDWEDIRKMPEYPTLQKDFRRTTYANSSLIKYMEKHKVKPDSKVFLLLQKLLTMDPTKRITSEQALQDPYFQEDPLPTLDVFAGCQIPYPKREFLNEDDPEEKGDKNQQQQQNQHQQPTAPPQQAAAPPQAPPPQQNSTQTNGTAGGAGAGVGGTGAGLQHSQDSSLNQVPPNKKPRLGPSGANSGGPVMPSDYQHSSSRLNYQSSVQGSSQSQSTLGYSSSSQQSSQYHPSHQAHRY
# In short: as §1
# PIKFYVE = target: T6, PIKFYVE (Homo sapiens, UniProt Q9Y2I7); conditions: read-out: % control
# T6 construct: purchased KinomeScan® (panel service)
# T6 sequence (Q9Y2I7 whole entry): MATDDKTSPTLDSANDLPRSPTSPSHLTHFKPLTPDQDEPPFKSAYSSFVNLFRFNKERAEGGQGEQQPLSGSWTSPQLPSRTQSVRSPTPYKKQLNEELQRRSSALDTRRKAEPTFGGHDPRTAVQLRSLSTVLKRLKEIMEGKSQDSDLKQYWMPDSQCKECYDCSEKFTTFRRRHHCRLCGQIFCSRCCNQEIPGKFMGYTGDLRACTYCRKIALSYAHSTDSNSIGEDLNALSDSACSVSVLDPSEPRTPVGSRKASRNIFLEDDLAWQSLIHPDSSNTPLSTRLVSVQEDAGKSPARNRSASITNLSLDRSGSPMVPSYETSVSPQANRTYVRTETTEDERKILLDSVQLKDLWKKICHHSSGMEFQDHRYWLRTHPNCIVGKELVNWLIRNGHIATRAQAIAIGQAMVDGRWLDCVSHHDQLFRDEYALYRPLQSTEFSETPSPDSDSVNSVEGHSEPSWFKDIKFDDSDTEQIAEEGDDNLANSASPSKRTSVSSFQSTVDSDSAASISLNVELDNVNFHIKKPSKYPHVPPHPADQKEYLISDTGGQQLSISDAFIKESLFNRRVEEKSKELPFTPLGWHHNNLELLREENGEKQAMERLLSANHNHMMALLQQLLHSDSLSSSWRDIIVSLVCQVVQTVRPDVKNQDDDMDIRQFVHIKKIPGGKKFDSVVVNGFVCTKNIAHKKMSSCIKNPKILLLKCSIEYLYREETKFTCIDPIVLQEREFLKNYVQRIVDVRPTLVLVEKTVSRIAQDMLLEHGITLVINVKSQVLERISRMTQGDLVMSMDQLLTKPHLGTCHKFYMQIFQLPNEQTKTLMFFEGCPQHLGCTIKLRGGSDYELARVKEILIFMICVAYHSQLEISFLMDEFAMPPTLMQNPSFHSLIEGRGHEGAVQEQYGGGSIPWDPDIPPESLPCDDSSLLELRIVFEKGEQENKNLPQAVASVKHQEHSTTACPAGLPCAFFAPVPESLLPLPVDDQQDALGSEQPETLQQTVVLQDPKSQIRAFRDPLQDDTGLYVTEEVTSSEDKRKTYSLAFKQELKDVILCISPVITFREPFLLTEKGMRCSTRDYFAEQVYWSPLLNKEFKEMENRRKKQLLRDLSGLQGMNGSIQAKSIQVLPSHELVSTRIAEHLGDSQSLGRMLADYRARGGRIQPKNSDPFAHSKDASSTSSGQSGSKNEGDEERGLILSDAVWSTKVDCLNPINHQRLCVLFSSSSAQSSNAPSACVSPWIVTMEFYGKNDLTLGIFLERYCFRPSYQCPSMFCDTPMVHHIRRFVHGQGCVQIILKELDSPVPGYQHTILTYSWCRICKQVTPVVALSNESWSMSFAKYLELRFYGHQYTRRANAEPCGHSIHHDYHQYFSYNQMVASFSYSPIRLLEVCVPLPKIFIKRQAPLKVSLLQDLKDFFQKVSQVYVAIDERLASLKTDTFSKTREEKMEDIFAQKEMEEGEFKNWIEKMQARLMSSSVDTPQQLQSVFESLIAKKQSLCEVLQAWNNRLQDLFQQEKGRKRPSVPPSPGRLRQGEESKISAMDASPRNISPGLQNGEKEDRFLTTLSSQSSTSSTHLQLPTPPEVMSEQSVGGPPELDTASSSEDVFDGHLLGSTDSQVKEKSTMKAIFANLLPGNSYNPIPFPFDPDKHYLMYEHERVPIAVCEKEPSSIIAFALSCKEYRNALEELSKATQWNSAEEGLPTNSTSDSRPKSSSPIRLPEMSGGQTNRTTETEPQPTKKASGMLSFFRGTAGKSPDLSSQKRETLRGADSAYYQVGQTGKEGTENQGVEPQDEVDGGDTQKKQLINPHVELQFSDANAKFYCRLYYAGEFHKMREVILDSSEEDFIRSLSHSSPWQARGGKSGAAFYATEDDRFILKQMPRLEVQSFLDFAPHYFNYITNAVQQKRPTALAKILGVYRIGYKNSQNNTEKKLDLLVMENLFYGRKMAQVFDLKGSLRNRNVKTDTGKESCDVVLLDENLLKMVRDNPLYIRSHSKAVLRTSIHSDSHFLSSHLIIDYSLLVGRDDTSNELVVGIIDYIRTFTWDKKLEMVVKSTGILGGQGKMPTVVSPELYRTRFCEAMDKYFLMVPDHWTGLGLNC
# In short: as §1
Structure (SMILES),remaining binding at 1 µM (TNK1) [%],remaining binding at 1 µM (SgK110) [%],remaining binding at 1 µM (ABL1-nonphosphorylated) [%],remaining binding at 1 µM (PLK1) [%],remaining binding at 1 µM [1] [%],remaining binding at 1 µM (RIPK1) [%],remaining binding at 1 µM (PFTAIRE2) [%],remaining binding at 1 µM (CDK11) [%],remaining binding at 1 µM (PIKFYVE) [%]
"CNc1c(-c2cnn([C@H]3CCN(C(C)=O)C[C@@H]3F)c2)cnc2[nH]cc(Cl)c12 [Compound 77, 1-((3S,4S)-4-(4-(3-chloro-4-(methylamino)-1H-pyrrolo[2,3-b]pyridin-5-yl)-1H-pyrazol-1-yl)-3-fluoropiperidin-1-yl)ethan-1-one]",80,100,54,65,7.9,19,100,96,53
"CNc1c(-c2ccc(C(=O)N3CCC(N4CCOCC4)CC3)cc2)cnc2[nH]cc(Cl)c12 [Compound 96, (4-(3-chloro-4-(methylamino)-1H-pyrrolo[2,3-b]pyridin-5-yl)phenyl)(4-morpholinopiperidin-1-yl)methanone]",83,100,63,64,29,44,100,68,66
"O=C(c1ccc(-c2cnc3[nH]cc(Cl)c3c2NC2CCCC2)cc1)N1CCC(N2CCOCC2)CC1 [Compound 101, (4-(3-chloro-4-(cyclopentylamino)-1H-pyrrolo[2,3-b]pyridin-5-yl)phenyl)(4-morpholinopiperidin-1-yl)methanone]",50,100,98,98,100,47,91,35,98
